{"source": "patent US7256187B2", "about": "“Rifamycin C-11 oxime derivatives effective against drug-resistant microbes” (Cumbre Pharmaceuticals Inc., priority 2004, dated 2007)", "format_in_all_cases": "cell-based", "key": {"[1]": {"test_system": "Haemophilus influenzae ATCC10211", "experiment": "MIC, microbroth dilution", "details": "Haemophilus influenzae ATCC10211, rifS; read-out: Antimicrobial activity (MIC)"}, "[2]": {"test_system": "Staphylococcus aureus EN1252a gyrA^S84L grlA^S80F", "experiment": "microbe, parasite or virus in culture", "details": "read-out: Antimicrobial activity (MIC)", "summary_of_the_method": "(§1)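 MICs by microbroth dilution per NCCLS guidelines, with all incubations at 37° C; S. aureus tested in Cation-Adjusted Mueller-Hinton Broth. Strains carry rifampin-resistance rpoB mutations or quinolone-resistance double mutations in DNA gyrase and topoisomerase IV.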"}, "[3]": {"test_system": "Staphylococcus aureus ATCC29213 rpoB^D417Y", "experiment": "microbe, parasite or virus in culture", "summary_of_the_method": "as §1"}, "[4]": {"test_system": "Staphylococcus aureus ATCC29213 rpoB^H418Y", "experiment": "microbe, parasite or virus in culture", "summary_of_the_method": "as §1"}, "[5]": {"test_system": "Escherichia coli ATCC25922", "experiment": "MIC, microbroth dilution", "details": "Escherichia coli ATCC25922, rifS; read-out: Antimicrobial activity (MIC)"}, "[6]": {"test_system": "Staphylococcus epidermidis ATCC12228", "experiment": "MIC, microbroth dilution", "details": "Staphylococcus epidermidis ATCC12228, rifS; read-out: Antimicrobial activity (MIC)"}, "[7]": {"test_system": "Streptococcus pyogenes ATCC19615", "experiment": "MIC, microbroth dilution", "details": "Streptococcus pyogenes ATCC19615, rifS; read-out: Antimicrobial activity (MIC)"}, "[8]": {"test_system": "Staphylococcus aureus ATCC29213", "experiment": "MIC, microbroth dilution"}, "[9]": {"test_system": "Mycobacterium smegmatis ATCC700084", "experiment": "MIC, microbroth dilution", "details": "Mycolicibacterium smegmatis; Mycobacterium smegmatis ATCC700084, rifS; read-out: Antimicrobial activity (MIC)"}, "[10]": {"test_system": "Streptococcus pneumoniae ATCC6303", "experiment": "MIC, microbroth dilution", "details": "Streptococcus pneumoniae ATCC6303, rifS; read-out: Antimicrobial activity (MIC)"}, "[11]": {"test_system": "Enterococcus faecalis ATCC29212", "experiment": "MIC, microbroth dilution", "details": "Enterococcus faecalis ATCC29212, rifS; read-out: Antimicrobial activity (MIC)"}, "[12]": {"test_system": "Gram-negative bacteria (H. influenzae ATCC 10211 and E. coli ATCC 25922)", "experiment": "MIC, microbroth dilution, panel of strains", "details": "Haemophilus influenzae; across H. influenzae ATCC 10211 and E. coli ATCC 25922", "procedure": "(§2) Representative compounds were assayed for antimicrobial activity as follows: Minimum Inhibitory Concentrations (“MICs”) were determined by the microbroth dilution method as per NCCLS guidelines (National Committee for Clinical Laboratory Standards. 2000. Methods for dilution antimicrobial susceptibility tests for bacteria that grow aerobically, 5th ed. M7-A5. National Committee for Clinical Laboratory Standards, Wayne, Pa.), except that all growth incubations were conducted at 37° C. Bacterial cultures were tested in the following bacteriological media: S. aureus, S. epidermidis, and E. coli in Cation-Adjusted Mueller-Hinton Broth, S. pneumoniae in THY Broth supplemented with 1 mg/mL catalase under 5% CO2 atmosphere, S. pyogenes in THY Broth, E. faecalis in BHI Broth, H. influenzae in BHI Broth supplemented with 0.75 μL of 1 mg/mL NAD and 150 μL of 1 mg/ml hematin per 5 mL, and M. smegmatis in Middlebrook Broth plus ADC Enrichment.\n(§3) S. aureus […], S. epidermidis ATCC 12228, S. pneumoniae ATCC6303, S. pyogenes ATCC 19615 and E. faecalis ATCC 29212 are rifampin-susceptible Gram-positive strains. […] The compounds of the current invention show further improved activity against these strains with MICs as low as 0.0002 μg/ml. H. influenzae ATCC 10211 and E. coli ATCC 25922 are Gram-negative bacteria. […]"}, "[13]": {"experiment": "MIC, microbroth dilution, panel of strains", "details": "across five rifampin-susceptible Gram-positive strains", "procedure": "as §2, §3"}, "[14]": {"details": "Staphylococcus aureus EN1252a gyrA^S84L grlA^S80F, cipR"}, "[15]": {"details": "Staphylococcus aureus ATCC29213 rpoB^D417Y, rifR, read-out: Antimicrobial activity (MIC)"}, "[16]": {"details": "Staphylococcus aureus ATCC29213 rpoB^H418Y, rifR, read-out: Antimicrobial activity (MIC)"}, "[17]": {"details": "Staphylococcus aureus ATCC29213, rifS, read-out: Antimicrobial activity (MIC)"}, "[18]": {"details": "Staphylococcus aureus, ATCC29213"}, "[19]": {"details": "Staphylococcus aureus, ATCC29213, read-out: Antimicrobial activity (MIC)"}}, "note": "Like-named read-outs stand apart in the source and are kept apart here."}
{"molecule": "CO[C@H]1/C=C/O[C@@]2(C)Oc3c(C)c(O)c4c(c3/C2=N/O)C(=O)C(/C=N/N2CCN(C)CC2)=C(NC(=O)/C(C)=C\\C=C\\[C@H](C)[C@H](O)[C@@H](C)[C@@H](O)[C@@H](C)[C@H](OC(C)=O)[C@@H]1C)C4=O", "note": "[Example 38, 11-Deoxy-11-hydroxyimino-3-(4-methylpiperazin-1-yl)aminomethenylrifamycin S]", "values": [{"measurement": "MIC", "setting": "[1]", "result": "0.03 to 2", "unit": "µg/mL"}, {"measurement": "MIC", "setting": "[2]; [14]", "result": "0.004 to 0.5", "unit": "µg/mL"}, {"measurement": "MIC", "setting": "[3]; [15]", "result": "0.25 to 32", "unit": "µg/mL"}, {"measurement": "MIC", "setting": "[4]; [16]", "result": "0.125 to 16", "unit": "µg/mL"}, {"measurement": "MIC", "setting": "[5]", "result": "0.125 to 8", "unit": "µg/mL"}, {"measurement": "MIC", "setting": "[6]", "result": "0.0005 to 0.063", "unit": "µg/mL"}, {"measurement": "MIC", "setting": "[7]", "result": "0.0005 to 0.063", "unit": "µg/mL"}, {"measurement": "MIC", "setting": "[8]; [17]", "result": "0.004 to 0.5", "unit": "µg/mL"}, {"measurement": "MIC", "setting": "[9]", "result": "0.5 to 64", "unit": "µg/mL"}, {"measurement": "MIC", "setting": "[10]", "result": "0.0002 to 0.125", "unit": "µg/mL"}, {"measurement": "MIC", "setting": "[11]", "result": "2 to 32", "unit": "µg/mL"}]}
{"molecule": "CO[C@H]1/C=C/O[C@@]2(C)Oc3c(C)c(O)c4c(O)c(c(/C=N/N5CCN(c6cc7c(cc6F)c(=O)c(C(=O)O)cn7C6CC6)CC5)c(O)c4c3/C2=N/O)NC(=O)/C(C)=C\\C=C\\[C@H](C)[C@H](O)[C@@H](C)[C@@H](O)[C@@H](C)[C@H](OC(C)=O)[C@@H]1C", "note": "[Example 39, 3-[4-(3-Carboxy-1-cyclopropyl-6-fluoro-4-oxo-1,4-dihydroquinolin-7-yl)piperazin-1-yl-aminomethylenyl]-11-deoxy-11-hydroxyiminorifamycin SV]", "values": [{"measurement": "MIC", "setting": "[1]", "result": "0.03 to 2", "unit": "µg/mL"}, {"measurement": "MIC", "setting": "[2]; [14]", "result": "0.004 to 0.5", "unit": "µg/mL"}, {"measurement": "MIC", "setting": "[3]; [15]", "result": "0.25 to 32", "unit": "µg/mL"}, {"measurement": "MIC", "setting": "[4]; [16]", "result": "0.125 to 16", "unit": "µg/mL"}, {"measurement": "MIC", "setting": "[5]", "result": "0.125 to 8", "unit": "µg/mL"}, {"measurement": "MIC", "setting": "[6]", "result": "0.0005 to 0.063", "unit": "µg/mL"}, {"measurement": "MIC", "setting": "[7]", "result": "0.0005 to 0.063", "unit": "µg/mL"}, {"measurement": "MIC", "setting": "[8]; [17]", "result": "0.004 to 0.5", "unit": "µg/mL"}, {"measurement": "MIC", "setting": "[9]", "result": "0.5 to 64", "unit": "µg/mL"}, {"measurement": "MIC", "setting": "[10]", "result": "0.0002 to 0.125", "unit": "µg/mL"}, {"measurement": "MIC", "setting": "[11]", "result": "2 to 32", "unit": "µg/mL"}]}
{"molecule": "CO[C@H]1/C=C/O[C@@]2(C)Oc3c(C)c(O)c4c(O)c(c(/C=N/N5CCN(C)CC5)c(O)c4c3C2=O)NC(=O)/C(C)=C\\C=C\\[C@H](C)[C@H](O)[C@@H](C)[C@@H](O)[C@@H](C)[C@H](OC(C)=O)[C@@H]1C", "note": "[rifampin, reference compound]", "values": [{"measurement": "MIC", "setting": "[1]", "result": 0.24, "unit": "µg/mL"}, {"measurement": "MIC", "setting": "[2]; Staphylococcus aureus", "result": 0.004, "unit": "µg/mL"}, {"measurement": "MIC", "setting": "[3]; [18]", "result": "> 64", "unit": "µg/mL"}, {"measurement": "MIC", "setting": "[3]; [19]", "result": "> 64", "unit": "µg/mL"}, {"measurement": "MIC", "setting": "[4]; [18]", "result": 8, "unit": "µg/mL"}, {"measurement": "MIC", "setting": "[4]; [19]", "result": 8, "unit": "µg/mL"}, {"measurement": "MIC", "setting": "[5]", "result": 16, "unit": "µg/mL"}, {"measurement": "MIC", "setting": "[6]", "result": 0.03, "unit": "µg/mL"}, {"measurement": "MIC", "setting": "[7]", "result": 0.013, "unit": "µg/mL"}, {"measurement": "MIC", "setting": "[8]; [17]", "result": 0.008, "unit": "µg/mL"}, {"measurement": "MIC", "setting": "[8]; Staphylococcus aureus, ATCC29213, S. aureus ATCC 29213 wild type, read-out: MIC", "result": 0.008, "unit": "µg/mL"}, {"measurement": "MIC", "setting": "[9]", "result": 64, "unit": "µg/mL"}, {"measurement": "MIC", "setting": "[10]", "result": 0.061, "unit": "µg/mL"}, {"measurement": "MIC", "setting": "[12]", "result": "0.24 to 16", "unit": "µg/mL"}, {"measurement": "MIC", "setting": "[13]", "result": "0.013 to 1", "unit": "µg/mL"}, {"measurement": "MIC", "setting": "[11]", "result": 1, "unit": "µg/mL"}]}
